Reference: the NIST ThermoML archive (doi:10.1016/j.fluid.2012.11.006)
Values joined by “and” are separate entries in the source; they are usually repeats but may differ in a detail not shown here. Identical values can stand only once.

Assays:
[1] = molar enthalpy of transition or fusion; conditions: DSC
[2] = Molar enthalpy of transition or fusion; conditions: Crystal; DSC
[3] = molar heat capacity at constant pressure; conditions: 101.33 kPa, Crystal, Flow calorimetry
[4] = molar enthalpy of vaporization or sublimation; conditions: 298.15 K; Crystal; Torsion-effucion

O=C(O)c1cc(Br)cc(Br)c1 [3,5-dibromobenzoic acid]
Conditions | molar enthalpy of transition or fusion | vapor or sublimation pressure
355.2 K, Crystal, Torsion effusion method | – | 1.9e-05 kPa
358 K, Crystal, Torsion effusion method | – | 2.8e-05 kPa
359 K, Crystal, Torsion effusion method | – | 2.8e-05 kPa
360.5 K, Crystal, Torsion effusion method | – | 3.8e-05 kPa
362.5 K, Crystal, Torsion effusion method | – | 4.7e-05 kPa
363.8 K, Crystal, Torsion effusion method | – | 4.7e-05 kPa
365.2 K, Crystal, Torsion effusion method | – | 5.7e-05 kPa
365.6 K, Crystal, Torsion effusion method | – | 5.7e-05 kPa
366.4 K, Crystal, Torsion effusion method | – | 6.6e-05 kPa
366.8 K, Crystal, Torsion effusion method | – | 7.6e-05 kPa
369.2 K, Crystal, Torsion effusion method | – | 9.5e-05 kPa
371 K, Crystal, Torsion effusion method | – | 0.000114 kPa
371.2 K, Crystal, Torsion effusion method | – | 0.000114 kPa
371.3 K, Crystal, Torsion effusion method | – | 0.000114 kPa
372.5 K, Crystal, Torsion effusion method | – | 0.000133 kPa
373 K, Crystal, Torsion effusion method | – | 0.000133 kPa
373.7 K, Crystal, Torsion effusion method | – | 0.000133 kPa
374 K, Crystal, Torsion effusion method | – | 0.000152 kPa
375.6 K, Crystal, Torsion effusion method | – | 0.000189 kPa
376 K, Crystal, Torsion effusion method | – | 0.000189 kPa
377 K, Crystal, Torsion effusion method | – | 0.000208 kPa
377.9 K, Crystal, Torsion effusion method | – | 0.000227 kPa
378.2 K, Crystal, Torsion effusion method | – | 0.000208 kPa
380.2 K, Crystal, Torsion effusion method | – | 0.000284 kPa
380.4 K, Crystal, Torsion effusion method | – | 0.000284 kPa
381.3 K, Crystal, Torsion effusion method | – | 0.000303 kPa
381.5 K, Crystal, Torsion effusion method | – | 0.000303 kPa
383.2 K, Crystal, Torsion effusion method | – | 0.000398 kPa
383.7 K, Crystal, Torsion effusion method | – | 0.000398 kPa
384.1 K, Crystal, Torsion effusion method | – | 0.000379 kPa
384.3 K, Crystal, Torsion effusion method | – | 0.000436 kPa
386.3 K, Crystal, Torsion effusion method | – | 0.000474 kPa
386.6 K, Crystal, Torsion effusion method | – | 0.000531 kPa
386.9 K, Crystal, Torsion effusion method | – | 0.000531 kPa
387.7 K, Crystal, Torsion effusion method | – | 0.000531 kPa
389.8 K, Crystal, Torsion effusion method | – | 0.000758 kPa
390.1 K, Crystal, Torsion effusion method | – | 0.00072 kPa
390.8 K, Crystal, Torsion effusion method | – | 0.000796 kPa
391.1 K, Crystal, Torsion effusion method | – | 0.000739 kPa
393.1 K, Crystal, Torsion effusion method | – | 0.000947 kPa
393.7 K, Crystal, Torsion effusion method | – | 0.000947 kPa
394 K, Crystal, Torsion effusion method | – | 0.001004 kPa
395.6 K, Crystal, Torsion effusion method | – | 0.001213 kPa
395.9 K, Crystal, Torsion effusion method | – | 0.001175 kPa
500.1 K, Liquid, isothermal thermogravimetric | – | 1.128 kPa
500.1 K, Liquid, non-isothermal thermogravimetric | – | 1.173 kPa
500.7 K, Liquid, non-isothermal thermogravimetric | – | 1.118 kPa
501.1 K, Liquid, isothermal thermogravimetric | – | 1.191 kPa
501.1 K, Liquid, non-isothermal thermogravimetric | – | 1.135 kPa
501.3 K, Liquid, non-isothermal thermogravimetric | – | 1.141 kPa
501.6 K, Liquid, isothermal thermogravimetric | – | 1.21 kPa
502.2 K, Liquid, isothermal thermogravimetric | – | 1.21 kPa
504 K, Liquid, non-isothermal thermogravimetric | – | 1.377 kPa
504.6 K, Liquid, isothermal thermogravimetric | – | 1.376 kPa
504.9 K, Liquid, non-isothermal thermogravimetric | – | 1.33 kPa
505.1 K, Liquid, isothermal thermogravimetric | – | 1.405 kPa
505.2 K, Liquid, non-isothermal thermogravimetric | – | 1.358 kPa
505.4 K, Liquid, isothermal thermogravimetric | – | 1.401 kPa
505.6 K, Liquid, non-isothermal thermogravimetric | – | 1.401 kPa
506.3 K, Liquid, isothermal thermogravimetric | – | 1.426 kPa
508.2 K, Liquid, non-isothermal thermogravimetric | – | 1.617 kPa
508.8 K, Liquid, isothermal thermogravimetric | – | 1.646 kPa
508.9 K, Liquid, isothermal thermogravimetric | – | 1.615 kPa
509 K, Liquid, non-isothermal thermogravimetric | – | 1.592 kPa and 1.624 kPa
509.2 K, Liquid, isothermal thermogravimetric | – | 1.652 kPa
509.4 K, Liquid, non-isothermal thermogravimetric | – | 1.653 kPa
510.3 K, Liquid, isothermal thermogravimetric | – | 1.637 kPa
512.3 K, Liquid, non-isothermal thermogravimetric | – | 1.893 kPa
512.9 K, Liquid, isothermal thermogravimetric | – | 1.908 kPa
513 K, Liquid, isothermal thermogravimetric | – | 1.9 kPa
513.1 K, Liquid, isothermal thermogravimetric | – | 1.909 kPa
513.1 K, Liquid, non-isothermal thermogravimetric | – | 1.85 kPa
513.3 K, Liquid, non-isothermal thermogravimetric | – | 1.802 kPa
513.5 K, Liquid, non-isothermal thermogravimetric | – | 1.882 kPa
514.4 K, Liquid, isothermal thermogravimetric | – | 1.98 kPa
516.3 K, Liquid, non-isothermal thermogravimetric | – | 2.222 kPa
516.7 K, Liquid, isothermal thermogravimetric | – | 2.189 kPa
517 K, Liquid, isothermal thermogravimetric | – | 2.217 kPa
517.1 K, Liquid, isothermal thermogravimetric | – | 2.176 kPa
517.1 K, Liquid, non-isothermal thermogravimetric | – | 2.15 kPa and 2.187 kPa
517.5 K, Liquid, non-isothermal thermogravimetric | – | 2.228 kPa
518.2 K, Liquid, isothermal thermogravimetric | – | 2.223 kPa
520.1 K, Liquid, non-isothermal thermogravimetric | – | 2.546 kPa
520.6 K, Liquid, isothermal thermogravimetric | – | 2.505 kPa
520.9 K, Liquid, isothermal thermogravimetric | – | 2.553 kPa
521 K, Liquid, non-isothermal thermogravimetric | – | 2.478 kPa
521.2 K, Liquid, isothermal thermogravimetric | – | 2.586 kPa
521.2 K, Liquid, non-isothermal thermogravimetric | – | 2.518 kPa
521.4 K, Liquid, non-isothermal thermogravimetric | – | 2.57 kPa
522.5 K, Liquid, isothermal thermogravimetric | – | 2.612 kPa
524.2 K, Liquid, non-isothermal thermogravimetric | – | 2.862 kPa
525 K, Liquid, isothermal thermogravimetric | – | 2.943 kPa and 2.941 kPa
525.2 K, Liquid, non-isothermal thermogravimetric | – | 2.789 kPa
525.4 K, Liquid, isothermal thermogravimetric | – | 2.995 kPa
525.4 K, Liquid, non-isothermal thermogravimetric | – | 2.858 kPa
525.5 K, Liquid, non-isothermal thermogravimetric | – | 2.884 kPa
526.3 K, Liquid, isothermal thermogravimetric | – | 3.009 kPa
528.1 K, Liquid, non-isothermal thermogravimetric | – | 3.325 kPa
528.9 K, Liquid, non-isothermal thermogravimetric | – | 3.233 kPa and 3.297 kPa
529.2 K, Liquid, non-isothermal thermogravimetric | – | 3.322 kPa
[1], 298.15 K, Crystal | 28.8 kcal/mol | –
[1], 491.2 K, Crystal | 20.2 kcal/mol and 27.4 kcal/mol | –
[1], 491.2 K, Liquid | 7.03 kcal/mol | –

Conditions | Normal melting temperature [°C] | molar heat capacity at constant pressure
Crystal, DTA | 218.1 | –
[3], 288.2 K | – | 215.7 J/K/mol and 215.8 J/K/mol
[3], 290.2 K | – | 217.3 J/K/mol and 217.5 J/K/mol and 217.4 J/K/mol
[3], 292.2 K | – | 219.2 J/K/mol and 219.3 J/K/mol and 219.4 J/K/mol
[3], 294.2 K | – | 220.3 J/K/mol and 220.4 J/K/mol
[3], 296.2 K | – | 221.6 J/K/mol and 221.5 J/K/mol
[3], 298.2 K | – | 223.2 J/K/mol and 223.1 J/K/mol and 223 J/K/mol
[3], 300.2 K | – | 224.5 J/K/mol and 224.9 J/K/mol and 224.7 J/K/mol
[3], 302.2 K | – | 225.8 J/K/mol and 225.7 J/K/mol
[3], 304.2 K | – | 227.2 J/K/mol and 227.1 J/K/mol and 227 J/K/mol
[3], 306.2 K | – | 228.4 J/K/mol and 228.3 J/K/mol
[3], 308.2 K | – | 229.6 J/K/mol and 229.8 J/K/mol and 229.9 J/K/mol
[3], 310.2 K | – | 231.5 J/K/mol and 231.6 J/K/mol
[3], 312.2 K | – | 232.5 J/K/mol and 232.3 J/K/mol and 232.4 J/K/mol
[3], 314.2 K | – | 234.1 J/K/mol and 233.9 J/K/mol and 234 J/K/mol
[3], 316.2 K | – | 235.2 J/K/mol and 235.3 J/K/mol
[3], 318.2 K | – | 236.9 J/K/mol and 236.7 J/K/mol and 237 J/K/mol
[3], 320.2 K | – | 238.5 J/K/mol and 238.4 J/K/mol
[3], 322.2 K | – | 239 J/K/mol and 239.2 J/K/mol
[3], 324.2 K | – | 240.7 J/K/mol and 240.6 J/K/mol and 240.5 J/K/mol
[3], 326.2 K | – | 242.5 J/K/mol and 242.4 J/K/mol

Conditions | Molar enthalpy of transition or fusion [kcal/mol] | molar enthalpy [kcal/mol]
[2] | 20.2 | –
[4] | – | 28.8
